Test results reported in patent US20200000873A1, “METHODS FOR IMPROVING THE COGNITIVE FUNCTIONS OF A SUBJECT” (The Regents of the University of California, priority 2017, published 2020).

Assays:
[1] = system: Brown Norway rats; test: Probabilistic reversal learning task (PRLT), single (acute) administration of oxytocin; assay type: in vivo, rat
Excerpt: (§1) Probabilistic learning, an aspect of executive function, can be assessed in rodents using a probabilistic reversal learning task (PRLT). A PRLT is typically a 1-hour test using two recessed lights in the back of the operant chamber as stimuli (see, FIGS. 2, 3 and 4). After illumination and subsequent extinguishing of the magazine light via nose-poke, a 2 second inter-trial interval occurs, which is then immediately followed by a 10 second period during which two apertures are illuminated wherein the rat can respond via nose-poke. One of the two stimuli is designated the target stimulus, and responses to it are rewarded more frequently (e.g., rewarded 80% of the time) (aperture light extinguished and reward delivered into the magazine) and punished less frequently (e.g., 20% of the time) (aperture light extinguished and house light illuminated for a 4-second timeout period during which no reward was delivered). The other stimulus was designated the non-target stimulus, to which responses are rewarded less frequently (e.g., 20% of the time) and punished more frequently (80% of the time). Initial target and non-target locations are alternated among the testing chambers such that the first target of the session is, for example, the left light in four of the eight chambers, and the right in the others. […] After first criterion acquisition, the target and non-target locations are reversed. The subject then has to recognize that this change, or “switch,” had occurred and adjust its responses accordingly. After another 8 consecutive correct responses, the ratios are switched again. This pattern is repeated for the remainder of the 1-hour session. The number of switches the subject is able to complete within the testing period was the primary outcome variable of PRLT to measure reversal learning. An additional primary outcome measure, trials to first criterion, provided a measure of initial reinforcement learning without the confound of reversal learning included.
(§2) Several latency measures included mean target latency (millisecond (ms) to respond in the target stimulus), mean non-target latency (ms to respond in the non-target stimulus), and mean reward latency (ms to collect the reward).
(§3) Rats (Brown Norway rats or Long Evans rats) executive function was tested using a nine-choice operant box (e.g., see FIG. 2). The nine-choice operant box has nine depressions in which a rat can poke its nose into (see FIG. 2), where each depression comprises a light emitting diode (LED). A rat was placed in the box and two of the LEDs were illuminated (e.g., see FIG. 3). One LED, the ‘target’, rewarded a rat's nose poke 80% of the time with food while the other LED, the ‘nontarget’, rewarded a rat's nose poke only 20% of the time. After eight consecutive responses in which the ‘target’ LED was selected, the reward ratios for the two LED's were switched, and the next block of testing was begun. Brown Norway rats were used as test subjects while Long Evans rats were used as controls.
(§4) Scoring of executive function was based on the number of switches a rat was able to complete within a one-hour test period, as well as the number of block changes a rat can progress through. In particular, the scoring and conclusions of executive function were made as follows:
(§5) A primary measure of executive function. The number of times the ‘target’ stimulus switches following eight consecutive “correct” responses by the subject. The number of switches a rat is able to complete within a one-hour test period indicates how quickly the rat is able to detect and adjust to reversals. The more switches completed by the rat, the better the executive function of the rat.
(§6) A primary measure of executive function. Indicates how quickly rat was able to progress through the blocks—the block changes whenever the target switches, so if the subject completed five blocks and is working on the sixth when the one hour testing session ends. […]

[2] = system: humans; details: humans treated with oxytocin, reported; cited from earlier work
[3] = system: Brown Norway rats; test: Probabilistic reversal learning task (PRLT) after long-term (21 days) administration of oxytocin; assay type: in vivo, rat
Excerpt: as §1, §2, §3, §4, §5, §6

[4] = oxytocin 1.00 mg/kg, Brown Norway rats

SMILES: CC[C@H](C)[C@@H]1NC(=O)[C@H](Cc2ccc(O)cc2)NC(=O)[C@@H](N)CSSC[C@@H](C(=O)N2CCC[C@H]2C(=O)N[C@@H](CC(C)C)C(=O)NCC(N)=O)NC(=O)[C@H](CC(N)=O)NC(=O)[C@H](CCC(N)=O)NC1=O [oxytocin]
- executive function, effect of dose ([1]; BN rats, 1.00 mg/kg vs. lower doses 0.04 mg/kg and 0.20 mg/kg): dose dependent
- number of switches in the PRLT ([1]; acute OT 0.04 mg/kg, BN rats vs. vehicle-treated LE rats): fewer switches
- total trials to initial criterion ([1]; acute OT 1 mg/k/g, BN rats vs. both vehicle-treated BN and LE rats): reduced
- total number of switches completed in the PRLT ([1]; acute OT 1 mg/kg, BN rats vs. vehicle): increased
- probabilistic learning of subjects ([1]; administration of oxytocin): significantly improved
- improvement in executive function [1, 4]: significant
- number of switches ([1]; oxytocin administered to Brown Norway rats, dose not stated): increased
- executive function of the animal subjects ([1]; oxytocin administered to animal subjects): significantly improved
- cognitive performance and memory [2]: Impairments
- trials to first criterion ([3]; 1 mg/kg OT vs. vehicle in BN rats, long-term administration): appears to reduce
- number of switches in the PRLT ([3]; BN rats previously treated with 0.04 mg/kg OT compared with LE rats): LE rats exhibited more switches
- number of switches in the PRLT ([3]; BN rats previously treated with 0.2 mg/kg OT compared with LE rats): LE rats exhibited more switches
- number of switches in the PRLT ([3]; BN rats treated with 1 mg/kg OT vs. vehicle-treated BN rats, long-term administration): significantly more switches
- executive function after discontinuation of OT ([3]; BN rats, 1.0 mg/kg OT for 21 days, tested approximately one week or more after discontinuation): persistent improvement
- time post treatment at which improvement of executive function was seen [3, 4]: 7 days
